# Details: buffer; pH 7.4; 200.0 µM
row,SMILES,solubility kinetic [µg/mL]
1,CN(C)S(=O)(=O)c1cc(NC(=O)COC(=O)CC2CC3CCC2C3)ccc1Cl (stereo unspecified),13.7
2,CN(C(=O)COC(=O)c1cc2ccccc2oc1=O)C1CCCCC1,47.7
3,O=C(O)c1ccc(S(=O)(=O)N2CCCC2)cc1,37.6
4,Cc1ccc2nc(-c3ccc4c(c3)NC(=O)CO4)cn2c1,3.2
5,COc1ccccc1NC(=O)COC(=O)c1ccc(S(=O)(=O)N2CCCCCC2)cc1,2.6
6,O=C(CN1CCN(C(=O)c2ccc(OCc3cn4ccccc4n3)cc2)CC1)Nc1cccc(F)c1,8.6
7,O=[N+]([O-])c1ccccc1S(=O)(=O)NC1CC2CCC1C2 (stereo unspecified),> 44.5
8,CCn1c(N2CCN(C(=O)c3ccco3)CC2)nc2ccccc21,35.8
9,NC(=S)Nc1c(Cl)cccc1Cl,> 33.2
10,CCOc1ccc(CC(=O)NCCc2cnc[nH]2)cc1,> 41
11,Cc1ccsc1CN(C)C(=O)c1ccc(Oc2ccccc2)cc1,3.3
12,Cc1ccc(NC(=O)CCC(=O)N2CCOCC2)nc1,> 41.6
13,CC(=O)Nc1ccc(-c2csc(NCc3ccccc3)n2)cc1,33.9
14,Cn1c(CNC(=O)OC(C)(C)C)n[nH]c1=S,> 36.6
15,CC1=NN(c2nc(-c3ccc(C#N)cc3)cs2)C(=O)C1,> 42.3
16,CN(CC(=O)N1CCN(Cc2ccccc2)CC1)C(=O)Cc1ccc(Cl)c(Cl)c1,61.7
17,CSc1ccc(CN(C)C(=O)C(c2ccccc2)c2ccccc2)cc1,7.7
18,COc1cc(N)c(Cl)cc1C(=O)OCC(=O)NCC1CCCO1 (stereo unspecified),> 51.4
19,Cc1nc2cc(Cl)c(Cl)cc2n1CCCO,33.9
20,Cc1cccc(N2CCN(C(=O)CNC(=O)Cc3ccccc3)CC2)c1C,> 54.8
21,CC(=O)c1cc2c(cc1NC(=O)Cc1c(C)noc1C)OCO2,> 47.4
22,COc1ccc(C(=O)NC(C)c2ccc(-n3ccnc3)cc2)c(OC)c1 (stereo unspecified),> 52.7

row,SMILES,solubility kinetic [µg/mL]
1,Cc1ccc(S(=O)(=O)N2CCn3cccc3C2C)cc1 (stereo unspecified),> 43.6
2,CN(C)c1ccc(NC(=O)c2cnsn2)cc1,30.2
3,COc1ccc(NS(=O)(=O)c2cccc(C(=O)N3CCN(C(=O)c4ccco4)CC3)c2)cc1,68.1
4,Fc1cc(Cl)c(OCc2noc(-c3ccsc3)n2)c(Cl)c1,0.5
5,COC(=O)c1sccc1NC(=O)Nc1cccc(OC)c1,> 46
6,Cc1occc1C(=O)N1CCN(c2ccc([N+](=O)[O-])cc2)CC1,35.4
7,CCCNC(=O)CN1C(=O)NC(CC)(c2ccc(F)cc2)C1=O (stereo unspecified),> 48.2
8,O=C(COC(=O)Cc1c(Cl)cccc1Cl)NC1CCCC1,> 49.5
9,CCCCC(=O)N/C(N)=N/c1nc2ccccc2o1,0.7
10,CC1CCCCN1C(=O)CCn1c(=O)oc2ccccc21 (stereo unspecified),> 43.3
11,CC(=O)c1c(C)[nH]c(C(=O)Nc2cccc(C)n2)c1C,21.4
12,CCc1ccc(OCC(=O)O/N=C(\N)c2ccncc2)cc1,7.1
13,CC(=O)N(CCOc1ccccc1)CCOc1ccccc1,> 44.9
14,CN1CCC(N(C)CC(O)c2ccccc2)CC1.O=C(O)C(=O)O (stereo unspecified),> 50.8
15,CCOC(=O)C1=C(C)N=C2SC(C)C(=O)N2C1c1ccccc1 (stereo unspecified),48.5
16,CN(C(=O)CSc1nnnn1C)C1(C#N)CCCCC1,> 44.2
17,Cc1nnc(-c2ccc(N3CCOCC3)c([N+](=O)[O-])c2)o1,> 43.5
18,COc1ccc(C2c3ccsc3CCN2C(=O)C(C)(C)C)cc1 (stereo unspecified),14.9
19,CCc1[nH]c(C(=O)O)c(C)c1C(=O)OC,> 31.7
20,CCOc1ccccc1NC(=S)NC1CC2CCC1C2 (stereo unspecified),5
21,Cc1c(C)[n+](=O)c(-c2ccc(Br)cc2)c(C)n1[O-],> 46.4
22,CCc1ccc(NS(=O)(=O)c2cccc3nsnc23)cc1,40.5

row,SMILES,solubility kinetic [µg/mL]
1,Cn1cc([N+](=O)[O-])c(C(=O)NCC(=O)O)n1,> 34.2
2,CC1CN(C(=O)COC(=O)c2ccc(C#N)cc2)CC(C)O1 (stereo unspecified),> 45.3
3,O=C(O)c1cccnc1SC1CC(=O)N(c2ccccc2)C1=O (stereo unspecified),> 49.3
4,O=C(CC1CCCCC1)NCc1nc(-c2ccccc2)no1,5.8
5,CC(=O)c1cccc(NC(=O)c2cnccn2)c1,> 36.2
6,CCOC(=O)/C(=C\c1ccccc1)NC(=O)c1ccccc1,> 44.3
7,Cl.Clc1ccc(NCc2ccsc2)cc1,2.7
8,CCOC(=O)CNC(=O)CSc1nc(-c2ccc(C)cc2)ns1,11.1
9,CCn1c(=NC(=O)COc2ccccc2)sc2cccc(F)c21,< 0.4
10,CC(NC(=O)COc1cccnc1[N+](=O)[O-])c1ccc(Cl)cc1Cl (stereo unspecified),44.1
11,C=CC(=O)NC(NC(=O)C=C)c1ccccc1F,> 37.2
12,C[C@H](NC(=O)c1ccco1)C(=O)NC1CCCCCC1,> 41.8
13,N#C/C(C(N)=O)=C1/SC=C(c2ccccc2)N1c1ccccc1,0.4
14,CCN(CC)c1ccc(NC(=O)Nc2cccc3ccccc23)cc1,0.6
15,CC(=O)c1ccc(NC(=S)N2CCCC(C(F)(F)F)C2)cc1 (stereo unspecified),47.6
16,O=C(NCCN1CCNCC1)c1ccccc1O,> 37.4
17,O=C(COC(=O)/C=C/c1ccccc1)NCc1ccc2c(c1)OCO2,4.8
18,CNC(=O)c1ncoc1-c1ccc(Cl)cc1,33.8
19,O=C1CCN(C(=O)CCCn2c(=O)oc3ccccc32)CC1,> 45.3
20,O=C(/C=C/c1ccc([N+](=O)[O-])s1)N1CCCC1,> 37.8
21,CN(CC(=O)Nc1c(Cl)cccc1Cl)C(=O)Cc1ccsc1,> 53.6
22,CCCCCC(=O)NNC1CC(=O)N(c2ccccc2)C1=O (stereo unspecified),> 45.5

row,SMILES,solubility kinetic [µg/mL]
1,Cc1ccccc1C(=O)NCC(=O)O,> 29
2,O=C(O)c1ccccc1C(=O)Nc1c(-c2ccccc2)nc2ccccn12,49.6
3,COc1ccc(C(=O)Cn2cnc3ccccc3c2=O)c(OC)c1,41.7
4,C=CCNC(=O)COc1cc(C)cc(C)c1C,30.8
5,CSc1ccc(CN2CCCN(C)CC2)cc1,22.1
6,CCN(C(=O)Cc1c(C(=O)O)n(CC)c2ccccc12)c1ccccc1C,42.7
7,COC(=O)c1ccc(N2C(=O)C3CC(C)=C(C)CC3C2=O)cc1 (stereo unspecified),18.3
8,CCCCOc1ccc(C2(C)NC(=O)NC2=O)cc1 (stereo unspecified),31.2
9,O=C1CNC(=S)N1CCOc1ccccc1,30.4
10,Cc1ccc(F)cc1NC(=O)/C=C/c1ccc(S(=O)(=O)N2CCOCC2)cc1,1.8
11,O=Cc1cccc(OC(=O)Nc2ccccc2)c1,29.2
12,C=CCn1c(NC(=O)c2ccc(C)cc2)nc2ccccc21,< 0.2
13,CCNC(=O)c1ccccc1CCc1ccccc1,32.7
14,CCS(=O)(=O)c1ccc(C(=O)NC)c(Cl)c1Cl,> 44.4
15,Cc1ccc(NS(=O)(=O)c2ccc(C(=O)NCCN3CCOCC3)cc2)cc1.Cl,> 66
16,NS(=O)(=O)c1ccc(CCNC(=O)COC(=O)/C=C/c2cc(Br)ccc2F)cc1,30.2
17,COc1ccc(-c2[nH]c3ccccc3c2SCCN)cc1,31.9
18,CC(=O)Nc1ccc(S(=O)(=O)N[C@@H](C)C(=O)OCC(=O)c2ccc(C)cc2)cc1,37.7
19,NC(=O)CCN1CCN(S(=O)(=O)/C=C/c2ccccc2)CC1,42.4
20,O=C1CCC/C1=C/Nc1cccc(F)c1,23.6

# From PubChem BioAssay AID1996
